# Measured values: US20030100550A1, “Carboxamide diazepin derivatives, preparation method, use as medicines, pharmaceutical compositions and use thereof” (priority 2002, published 2003)
# Columns and labels:
# [1] = molecular target: T1, Cathepsin B (Homo sapiens, UniProt P07858); test: Study of Cathepsin B inhibition (fluorescence, Z-arg-arg-AMC); format: biochemical; conditions: for IC50: substrate Z-arg-arg-AMC 20 μM, enzyme 16 ng/ml, 1 hour at ambient temperature
# T1 construct: purchased Calbiochem
# Protocol: (§1) The products to be tested (10 mM) are diluted to […] in DMSO and distributed into Nunc polystyrene 96 well plates at a rate of 2 μl per well. Column 12 of the plate is reserved for the controls and therefore receives […] of DMSO (without products) per well. The plates are stored at −80° C. and thawed on the day of the experiment.
# (§2) The products are diluted to 50 μM by adding 38 μl of reaction buffer: sodium acetate 100 mM, EDTA 5 mM, DTT […] pH 5.5. The addition as well as all the operations by pipette are carried out with a CybiWell 96 tip pipette. After mixing the solutions, each product is transferred into 2 wells (duplicates) of a Greiner black 384 well plate at a rate of 10 μl per well. Two 96-well plates can therefore be tested in a 384-well plate.
# (§3) A solution of substrate at 50 μM, Z-Val-arg-AMC (Calbiochem), is prepared in the reaction buffer. The substrate, is then distributed into all the wells of the 384-well plate (20 μl per well).
# (§4) A solution of Cathepsin K at 12.5 ng/ml is prepared in the reaction buffer and distributed into all the wells of the 384-well plate (20 μl per well) except for the 16 wells serving as 100% inhibition controls (column 23 and 24, lines I to P) which receive 20 μl of enzyme-free buffer.
# (§5) The plates are then incubated 2H at ambient temperature, then read on Fluoroskan (Labsystems): excitation 390 nm; emission 460 nm
# (§6) The final concentrations of each of the reagents are: products 10 μM, substrate 20 μM, enzyme 5 ng/ml.
# (§7) The % inhibition for each of the products is calculated by using points at 0 and 100% inhibition of each plate as references. The products presenting a significant inhibition are then retested on a range of concentrations from 50 to 0.5 μM to determine an IC50.
# Study of Cathepsin B Inhibition:
# Protocol identical to that of Cathepsin K except for:
# Z-arg-arg-AMC substrate (Calbiochem), solution at 50 μM, final concentration 20 μM
# Cathepsin B (Calbiochem), solution at 40 ng/ml, final concentration 16 ng/ml
# Incubation for 1 hour at ambient temperature
# [2] = molecular target: T2, Cathepsin K (Homo sapiens, UniProt P43235); test: Study of Cathepsin K inhibition (fluorescence, Z-Val-arg-AMC); format: biochemical; conditions: substrate Z-Val-arg-AMC 20 μM, enzyme 5 ng/ml, 2H at ambient temperature; read-out: Cathepsin K IC50
# T2 sequence (P43235 115-329): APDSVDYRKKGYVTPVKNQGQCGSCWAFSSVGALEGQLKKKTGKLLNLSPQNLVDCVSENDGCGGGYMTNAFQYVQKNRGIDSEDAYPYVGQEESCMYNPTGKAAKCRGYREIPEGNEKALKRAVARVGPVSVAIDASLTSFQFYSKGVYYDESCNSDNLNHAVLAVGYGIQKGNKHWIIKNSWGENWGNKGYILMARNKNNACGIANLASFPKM
# Protocol: Study of Cathepsin K Inhibition:
# as §1, §2, §3, §4, §5, §6, §7
compound,measurement,setting,value
"C=CCOC(=O)CC[C@H](NC(=O)[C@@H]1CCCN2C(=O)CC[C@H](NC(=O)Nc3ccc(Oc4ccccc4)cc3)C(=O)N12)C(=O)C=[N+]=[N-] [Example 43, (2-propenyl)(4S)6-diazo-4-[[[(1S,9S)-9-[[[(4-phenoxyphenyl)amino]carbonyl]amino]-octahydro-6,10-dioxo-6H-pyridazino[1,2-a][1,2]diazepine-1-yl]carbonyl]amino]-5-oxo-hexanoate]",IC50,[1],15 µM
same,IC50,[2],1.5 µM
"C=CCOC(=O)CC[C@H](NC(=O)[C@@H]1CCCN2C(=O)CC[C@H](NS(=O)(=O)c3ccc(-c4ccon4)s3)C(=O)N12)C(=O)C=[N+]=[N-] [Example 48, (2-propenyl)(4S)6-diazo-4-[[[(1S,9S)-9-[[[5-(isoxazol-3-yl)-2-thienyl]sulphonyl]amino]-octahydro-6,10-dioxo-6H-pyridazino[1,2-a][1,2]diazepine-1-yl]carbonyl]amino]-5-oxo-hexanoate]",IC50,[1],7 µM
same,IC50,[2],3 µM
"C=CCOC(=O)CC[C@H](NC(=O)[C@@H]1CCCN2C(=O)CC[C@H](NC(=O)c3ccco3)C(=O)N12)C(=O)COC(=O)c1c(Cl)cccc1Cl [Example 91, (2-propenyl)(4S)6-[(2,6-dichlorobenzoyl)oxy]-4-[[[(1S,9S)-9-[[(2-furanyl)carbonyl]amino]-octahydro-6,10-dioxo-6H-pyridazino[1,2-a][1,2]diazepine-1-yl]carbonyl]amino]-5-oxo-hexanoate]",IC50,[1],< 0.2 µM
same,IC50,[2],6 µM
"C=CCOC(=O)CC[C@H](NC(=O)[C@@H]1CCCN2C(=O)CC[C@H](NS(=O)(=O)c3ccc(C(F)(F)F)cc3)C(=O)N12)C(=O)COC(=O)c1c(Cl)cccc1Cl [Example 101, (2-propenyl)(4S)6-[(2,6-dichlorobenzoyl)oxy]-4-[[[(1S,9S)-9-[[[4-(trifluoromethyl)phenyl]sulphonyl]amino]-octahydro-6,10-dioxo-6H-pyridazino[1,2-a][1,2]diazepine-1-yl]carbonyl]amino]-5-oxo-hexanoate]",IC50,[1],6 µM
"COc1cccc(C(=O)N[C@H]2CCC(=O)N3CCC[C@@H](C(=O)N[C@@H](Cc4ccccc4)C(=O)COC(=O)c4c(Cl)cccc4Cl)N3C2=O)c1 [Example 185, 9-[(9S)-(3-methoxybenzoyl)amino]-N-((2S)-4-[(2,6-dichlorobenzoyl)oxy]-1-phenyl-3-oxo-2-butyl]-octahydro-6,10-dioxo-6H-(1S)-pyridazino[1,2-a][1,2]diazepine-1-carboxamide]",IC50,[1],7 µM
"O=C(N[C@H]1CCC(=O)N2CCC[C@@H](C(=O)N[C@@H](Cc3ccccc3)C(=O)COC(=O)c3c(Cl)cccc3Cl)N2C1=O)c1ccco1 [Example 192, 9-[(9S)-[(2-furanyl)carbonyl]amino]-N-[(2S)-4-[(2,6-dichlorobenzoyl)oxy]-1-phenyl-3-oxo-2-butyl]-octahydro-6,10-dioxo-6H-(1S)-pyridazino[1,2-a][1,2]diazepine-1-carboxamide]",IC50,[1],18 µM
same,IC50,[2],20 µM
O=C(NCCc1cccs1)N[C@H]1CCC(=O)N2CCC[C@@H](C(=O)N[C@@H](Cc3ccccc3)C(=O)CN3CCN(CC(=O)N4CCCC4)CC3)N2C1=O [Example 229],IC50,[1],18 µM
same,IC50,[2],20 µM
"CS(=O)(=O)N[C@H]1CCC(=O)N2CCC[C@@H](C(=O)N[C@@H](Cc3ccccc3)C(=O)COC(=O)c3c(Cl)cccc3Cl)N2C1=O [Example 234, 9-[(9S)-(methylsulphonyl)amino]-N-[(2S)-1-phenyl-4-[(-2,6-dichlorobenzoyl)oxy]-3-oxo-2-butyl]-octahydro-6,10-dioxo-6H-(1S)-pyridazino[1,2-a][1,2]diazepine-1-carboxamide]",IC50,[1],18 µM
same,IC50,[2],20 µM
"CC(C)C[C@H](NC(=O)[C@@H]1CCCN2C(=O)CC[C@H](NS(C)(=O)=O)C(=O)N12)C(=O)COC(=O)c1c(Cl)cccc1Cl [Example 304, 9-[(9S)-(methylsulphonyl)amino]-N-[(3S)-5-methyl-1-[(2,6-dichlorobenzoyl)oxy]-2-oxo-3-hexyl]-octahydro-6,10-dioxo-6H-(1S)-pyridazino[1,2-a][1,2]diazepine-1-carboxamide]",IC50,[1],1.5 µM
same,IC50,[2],12 µM
"CC(C)C[C@H](NC(=O)[C@@H]1CCCN2C(=O)CC[C@H](NS(=O)(=O)c3ccc(C(F)(F)F)cc3)C(=O)N12)C(=O)COC(=O)c1c(Cl)cccc1Cl [Example 313, 9-[(9S)-[[[4-(trifluoromethyl)phenyl]sulphonyl]amino]]-N-[(3S)-5-methyl-1-[(2,6-dichlorobenzoyl)oxy]-2-oxo-3-hexyl]-octahydro-6,10-dioxo-6H-(1S)-pyridazino[1,2-a][1,2]diazepine-1-carboxamide]",IC50,[1],5 µM
"CC(C)C[C@H](NC(=O)[C@@H]1CCCN2C(=O)CC[C@H](NS(=O)(=O)c3ccc4ccccc4c3)C(=O)N12)C(=O)COC(=O)c1c(Cl)cccc1Cl [Example 322, 9-[(9S)-[(2-naphthalenyl)sulphonyl]amino]-N-[(3S)-5-methyl-1-[(2,6-dichlorobenzoyl)oxy]-2-oxo-3-hexyl]-octahydro-6,10-dioxo-6H-(1S)-pyridazino[1,2-a][1,2]diazepine-1-carboxamide]",IC50,[1],6 µM
same,IC50,[2],20 µM
"CC(C)C[C@H](NC(=O)[C@@H]1CCCN2C(=O)CC[C@H](NS(=O)(=O)c3ccc(C(F)(F)F)cc3)C(=O)N12)C(=O)C=[N+]=[N-] [Example 347, 9-[(9S)-[[4-(trifluoromethyl)phenyl]sulphonyl]amino]-N-((3S)-1-diazo-5-methyl-2-oxo-3-hexyl)-octahydro-6,10-dioxo-6H-(1S)-pyridazino[1,2-a][1,2]diazepine-1-carboxamide]","Cathepsin B, percentage in parentheses beside IC50 value (% inhibition)","[1]; printed beside 20 μM, meaning not explained",25%
same,IC50,[2],12 µM
"CC(C)C[C@H](NC(=O)[C@@H]1CCCN2C(=O)CC[C@H](NS(=O)(=O)c3ccc4ccccc4c3)C(=O)N12)C(=O)C=[N+]=[N-] [Example 348, 9-[(9S)-[(2-naphthalenyl)sulphonyl]amino]-N-((3S)-1-diazo-5-methyl-2-oxo-3-hexyl)-octahydro-6,10-dioxo-6H-(1S)-pyridazino[1,2-a][1,2]diazepine-1-carboxamide]",IC50,[2],10 µM
"C[C@H](NC(=O)[C@@H]1CCCN2C(=O)CC[C@H](NC(=O)c3ccco3)C(=O)N12)C(=O)COC(=O)c1c(Cl)cccc1Cl [Example 443, 9-[(9S)-[(2-furanyl)carbonyl]amino]-N-[(2S)-4-[(2,6-dichlorobenzoyl)oxy]-3-oxo-2-butyl]-octahydro-6,10-dioxo-6H-(1S)-pyridazino[1,2-a][1,2]diazepine-1-carboxamide]",IC50,[1],5 µM
"COc1cccc(C(=O)N[C@H]2CCC(=O)N3CCC[C@@H](C(=O)N[C@@H](C)C(=O)COC(=O)c4c(Cl)cccc4Cl)N3C2=O)c1 [Example 463, 9-[(9S)-(3-methoxybenzoyl)amino]-N-[(2S)-4-[(2,6-dichlorobenzoyl)oxy]-3-oxo-2-butyl]-octahydro-6,10-dioxo-6H-(1S)-pyridazino[1,2-a][1,2]diazepine-1-carboxamide]",IC50,[1],1.5 µM
"C[C@H](NC(=O)[C@@H]1CCCN2C(=O)CC[C@H](NS(=O)(=O)c3ccc(C(F)(F)F)cc3)C(=O)N12)C(=O)COC(=O)c1c(Cl)cccc1Cl [Example 481, 9-[(9S)-[[4-(trifluoromethyl)phenyl]sulphonyl]amino]-N-[(2S)-4-[(2,6-dichlorobenzoyl)oxy]-3-oxo-2-butyl]-octahydro-6,10-dioxo-6H-(1S)-pyridazino[1,2-a][1,2]diazepine-1-carboxamide]",IC50,[1],6 µM
